Test results taken from patent publication US20250242060A1, “CHEMOGENETIC REGULATION OF PEPTIDE FUNCTION” (priority 2022, published 2025).
Entries after “also recorded” stand apart in the source; their conditions may differ.

Legend:
mu-opioid receptor (MOR) [1] = assay: GloSensor cAMP assay, single chain met-enkephalin-CapC-MOR; conditions: HEK 293T, forskolin stimulated
Text: A cyclic adenosine monophosphate (cAMP)-dependent luciferase (GloSensor) was used to monitor the activation of mu-opioid receptor. By expressing the real-time sensor GloSensor in cells, greater luminescence is observed when the cAMP concentration is high, and lower luminescence when the cAMP concentration is low. The GloSensor assay complements the split NanoLuc assay because it measures a downstream event rather than just binding between a G protein and the receptor i.e., membrane tethered opioid peptides (M-PROBE) activation not only causes G protein recruitment, but also downstream signaling events.
To test whether the M-PROBE induces downstream signaling as a free opioid, and that function of met-enkephalin is well-preserved in the membrane-tethered geometry, the same single chain met-enkephalin-CapC-MOR was expressed on the membrane of HEK 293T cells, and co-transfected cells with the cAMP-dependent luciferase. After overnight protein expression, HEK 293T cells were stimulated with forskolin to enhance the cAMP concentration within the cells. MOR is an inhibitory G-protein coupled receptor (GPCR), and its activation leads to decreased cAMP levels. A high cAMP concentration magnifies the effect of MOR activation.

[2] = tested on: CAPs-caged SsrA split transcription factor in HEK 293T cells; assay: Shield-1 dependent gene transcription activation, Gal4 DBD, UAS-mCherry reporter; type: cell-based; set-up: Gene expression (mCherry) at different shield-1 concentrations: dose or concentration left out as unconfirmed; conditions: for Shield-1-induced increase in mCherry intensity: + vs - shield-1
FKBP12(F36V) = FKBP12(F36V) (Homo sapiens, UniProt P62942, F37V); conditions: cited from earlier work
Chain of FKBP12(F36V) (P62942 whole entry F37V, the tested form may be a part): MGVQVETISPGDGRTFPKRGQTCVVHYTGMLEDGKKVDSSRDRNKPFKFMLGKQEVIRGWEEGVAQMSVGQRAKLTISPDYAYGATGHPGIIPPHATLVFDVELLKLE

mu-opioid receptor (MOR) [3] = assay: Split NanoLuc assay, 1-chain CapC-caged met-enkephalin fused to opioid receptor, Nb44 recruitment; type: cell-based; conditions: HEK293T cells, 1-chain design
Text: To test shield-1 chemical-dependent regulation of an opioid peptide, CapC-caged met-enkephalin was fused directly onto the N-terminus of the opioid receptor as shown in the right panel of FIG. 22. In this design, the M-PROBE cell membrane tethered opioid peptides (M-PROBE) and the opioid receptors were expressed in a fixed ratio in close proximity.

[4] = molecular target: T1, LID (FKBP with original binding sequence) fused to SsrA (Homo sapiens, UniProt P62942, F37V); assay: Yeast surface binding assay, SsrA caged by LID; conditions: LID degradation sequence replaced with SsrA
T1 construct: expressed in transfected cells; host or cells: Saccharomyces cerevisiae EBY100, surface display from pCTCON2
T1 sequence (P62942 with tags, fused parts or gaps F37V): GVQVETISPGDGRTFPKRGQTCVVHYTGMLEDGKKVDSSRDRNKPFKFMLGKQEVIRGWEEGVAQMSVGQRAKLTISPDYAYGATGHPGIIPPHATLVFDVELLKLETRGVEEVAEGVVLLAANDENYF
Method: (§1) The ability of LID to cage two short peptides that have been previously shown to be controllable by the AsLOV2 domain was tested. […] The degradation sequence (RRRGN) in LID was replaced with TEVcs or SsrA, and the remainder of the binding sequence and linker was retained (FIG. 1d).
Yeast that expressed SsrA (CapC constructs) was subject to APEX2 labeling^40 prior to labeling with antibody-fluorophore and streptavidin-fluorophore conjugates. Samples were incubated with 100 μL of PBSB containing SspB-APEX2 (expressed and purified as described above, under “Expression and purification of SspB-APEX2”) and 5 μM shield-1 at room temperature for 10 min with rotation. […]
(§2) After TEVp or APEX2 labeling, samples were labeled with antibody-fluorophore and/or streptavidin-fluorophore conjugates. […] All samples were resuspended in PBSB and analyzed or sorted by FACS (fluorescence-activated cell sorting, following procedures described under “FACS analysis and library selection”) within 24 h of labeling.
(§3) After labeling according to the procedures described above (under “Yeast labeling”), non-library yeast samples were analyzed with an LSRFortessa cell analyzer flow cytometer (BD Biosciences) equipped with 640 nm laser and 670/14 emission filter (for Alexa Fluor647) as well as 561 nm laser and 586/15 emission filter (for Alexa Fluor568 and PE). […]

[5] = molecular target: T2, CAPs-caged SsrA split transcription factor (P2A construct u4) in rat cortical neurons UniProt P62942, F37V); assay: Shield-1 dependent gene transcription in cultured neurons, TetR DBD, TRE-mCherry reporter; type: cell-based; conditions: AAV, 2 μM shield-1, 24 h
T2 construct: P2A self-cleaving peptide, separating it from the SspB-VP16 part (cleaved yes); host or cells: cultured rat cortical neurons, AAV
T2 sequence (P62942 with tags, fused parts or gaps F37V limits assumed): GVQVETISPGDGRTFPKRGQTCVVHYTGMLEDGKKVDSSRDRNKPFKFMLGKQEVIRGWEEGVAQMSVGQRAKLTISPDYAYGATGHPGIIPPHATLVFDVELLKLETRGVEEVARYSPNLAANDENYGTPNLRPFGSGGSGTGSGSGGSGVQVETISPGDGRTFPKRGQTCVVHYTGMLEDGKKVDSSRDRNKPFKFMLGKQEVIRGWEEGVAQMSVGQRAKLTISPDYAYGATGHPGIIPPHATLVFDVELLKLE
Method: To test the CAPs chemical-dependent transcriptional system in neuroscience applications, it was tested in cultured neurons. To enable homogeneous expression of DNA in stringent experiments, we generated single viral constructs that express both the DNA-binding and the transcription-activation domains via the self-cleaving peptide P2A or the internal ribosome entry site (TRES) were constructed (FIG. 12b). […] The P2A construct was then used to introduce the TetR DBD and VP16 transcription-activation domain into cultured rat cortical neurons through adeno-associated viruses (AAV), together with another AAV encoding the TRE-mCherry reporter gene. Shield-1 induced 44-fold increase in mCherry reporter gene expression compared to the no shield-1 condition (FIG. 12e and FIG. 19), showing that this system works robustly in cultured neurons.
Rat cortical neurons (Thermo Fisher Scientific, Cat #A1084001) were plated according to the user protocol. […] The viable cell density was determined by adding 10 μL of the cell suspension to 10 μl 0.4% Trypan blue, followed by cell counting using hemocytometer. […]
For neuronal infection, either concentrated AAVes or supernatant AAVes were added the neurons at DIV5-DIV10 (days in vitro). […] P values were determined by unpaired two-tailed t-tests.

CapN = molecular target: T3, CapN (Homo sapiens, UniProt P62942, F37V); assay: Shield-1 reversibility characterization with CapN-caged SsrA on yeast surface; type: binding; conditions: 10 min shield-1, washed, incubated up to 12 h without shield-1
T3 construct: expressed in transfected cells; host or cells: Saccharomyces cerevisiae EBY100, surface display from pCTCON2
T3 sequence (P62942 with tags, fused parts or gaps F37V): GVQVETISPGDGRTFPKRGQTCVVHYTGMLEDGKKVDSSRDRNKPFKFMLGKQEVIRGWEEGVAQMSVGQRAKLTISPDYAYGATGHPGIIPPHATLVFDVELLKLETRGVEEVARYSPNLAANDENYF
Method: FIG. 4. […] Yeast cells were incubated with shield-1 for 10 min, followed by washing to remove excess shield-1. […] Values are median biotin intensity of FLAG-positive cells (Q2+Q4). […] This experiment was performed once.
Yeast that expressed SsrA (CapC constructs) was subject to APEX2 labeling^40 prior to labeling with antibody-fluorophore and streptavidin-fluorophore conjugates. Samples were incubated with 100 μL of PBSB containing SspB-APEX2 (expressed and purified as described above, under “Expression and purification of SspB-APEX2”) and 5 μM shield-1 at room temperature for 10 min with rotation. For negative controls, either SspB-APEX2 or shield-1, or both, was not present in PBSB. […]
as §2, §3

[6] = tested on: CAPs-caged TEVcs with TEV protease in HEK 293T cells; assay: Shield-1 induced delocalization from the plasma membrane to the cytosol; type: cell-based; conditions: 10 μM shield-1, 18 h
Method: CAPs-caged TEVcs were anchored to the plasma membrane, followed by the POI (FIG. 9c). Under no shield-1 conditions, TEVcs are inaccessible to the co-expressed TEV protease, and the POI remains localized on the plasma membrane. With shield-1, TEVcs are uncaged and cleaved by TEV protease, thereby releasing the POI from the cell membrane.
Two extra wells without any infection are also plated for background subtraction. […] The two non-infection wells are treated with shield-1 and without shield-1, respectively. HEK 293T cells were incubated for 18 h at 37° C. before imaging.

[7] = tested on: CAPs-caged NLS (PKIt NES-EGFP-CapN-NLS-CapC) in HEK 293T cells; assay: Shield-1 controlled nuclear-cytoplasmic protein distribution; type: cell-based; conditions: 10 μM shield-1, 18 h
Text: The nucleocytoplasmic distribution of many eukaryotic proteins is a common determinant of their functions^30. Previously, NLS has been controlled by light through customized engineering with the AsLOV2 domain^13,14. To test if NLS is controlled by CAPs in a shield-I-dependent manner, a single-chain construct was designed in which a POI is expressed as a fusion protein with CAPs-caged NLS (FIG. 9e). […] Addition of shield-1 opens the CAPs and exposes NLS to endogenous importins, bringing the POI to the nucleus. Due to the strength of the NLS, a weak nuclear export signal, PKIt^13, was added to the construct to reduce the nuclear localization of the protein in the basal state.
HEK 293T cells were incubated for 18 h at 37° C. before imaging. […] Individual cells and the nuclei are determined by mCherry signal. Mean intensity and area are acquired with Nikon NIS-Elements analysis module. Mean intensities were subtracted by background mean intensity, and the resulting number is multiplied with the area to give total intensities. The EGFP distribution ratio was calculated by the total intensity of EGFP in the cytosol to that in the whole cell. P value was determined by unpaired two-tailed t-tests.

[8] = molecular target: CAPs-caged SsrA (mCherry-CapN-SsrA-CapC-CAAX) with SspB-EGFP in HEK 293T cells (Homo sapiens, UniProt P62942, F37V); assay: Shield-1 induced protein translocation to the plasma membrane; conditions: 1 μM shield-1
Text: To test use of CAPs for protein translocation, a shield-1 induced membrane localization system was designed (FIG. 9). In this design, CAPs-caged SsrA peptide is localized on the plasma membrane of HEK 293T cells by fusing to a transmembrane domain. The interacting partner of SsrA, SspB protein, is fused to the protein of interest (POI). As an example, evolved green fluorescent protein (EGFP) was used as the POI. Without shield-1, no binding between SsrA and SspB occurs, and EGFP is found throughout the cell.
Cells were incubated for 24 h at 37° C. before further processing. HEK293T cells were imaged with 60× oil-immersion objective on the Nikon inverted confocal microscope. Shield-1 dissolved in complete growth media was added gently to the top of the media to 1 μM during imaging. The intensity profile was acquired with Nikon NIS-Elements analysis module and plotted by GraphPad Prism 7.

[9] = molecular target: T4, LID (FKBP with original binding sequence) fused to TEVcs (Homo sapiens, UniProt P62942, F37V); assay: Yeast surface protease cleavage assay, TEVcs caged by LID; type: biochemical; conditions: LID degradation sequence replaced with TEVcs
T4 construct: TEVcs (ENLYFQ/G) (C); HA (C); expressed in transfected cells; host or cells: Saccharomyces cerevisiae EBY100, surface display from pCTCON2
T4 sequence (P62942 with tags, fused parts or gaps F37V limits assumed): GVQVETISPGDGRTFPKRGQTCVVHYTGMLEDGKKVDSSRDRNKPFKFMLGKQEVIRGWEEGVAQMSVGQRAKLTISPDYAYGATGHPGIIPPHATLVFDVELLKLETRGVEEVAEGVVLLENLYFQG
Method: as §1
Yeast that expressed TEV protease cleavage site (CapN constructs) was treated with TEVp prior to labeling with antibody-fluorophore conjugate. Samples were incubated with 200 μL PBSB containing TEVp (expressed and purified as described above, under “Expression and purification of TEV protease”) and 5 μM shield-1 at 4° C. for 3 h with rotation. For negative control, either TEVp or shield-1, or both, was not present in PBSB. […]
as §2, §3

Structure (SMILES): C[C@@H](NC(=O)[C@@H](N)Cc1ccc(O)cc1)C(=O)NCC(=O)N(C)[C@@H](Cc1ccccc1)C(=O)NCCO [DAMGO]
- Decrease in luminescence (mu-opioid receptor (MOR) [1]; 10 micromolar): ~80%

Structure (SMILES): CC[C@H](C(=O)N1CCCC[C@H]1C(=O)O[C@H](CCc1ccc(OC)c(OC)c1)c1cccc(OCCN2CCOCC2)c1)c1cc(OC)c(OC)c(OC)c1 [shield-1]
- Shield-1-induced increase in mCherry intensity ([2]; CAPs (tandem) caged 8-amino-acid SsrA): ~25 fold
- Shield-1 dependent reporter gene expression change ([2]; CAPs caged 7-amino-acid SsrA (AANDENY), construct u3): 156 fold
- Shield-1-induced increase in mCherry intensity ([2]; CapN caged 8-amino-acid SsrA): ~4 fold
- Gene expression (mCherry) at different shield-1 concentrations ([2]; construct u3): robust gene expression
- Shield-1 incubation period sufficient to induce gene expression ([2]; construct u3, 1 μM shield-1, imaged 24 h after addition): 30 min
- Gene expression induction ([2]; construct u3, overnight incubation, shield-1 50 nM or above): > 30 fold
- Gene expression ([2]; construct u3, overnight incubation, shield-1 below 10 nM): did not induce gene expression
- Shield-1 dependent dynamic range ([2]; maximum over caged peptides): up to 156 fold
- Level of EGFP (transcription-activation domain expression) ([2]; shield-1 added to EGFP-SspB-VP16 alone): No difference was found; also recorded: did not increase the level of EGFP
- Increase in mCherry expression ([2]; single viral IRES construct (u5)): 123 fold
- Increase in mCherry expression ([2]; single viral P2A construct (u4)): 83 fold
- Affinity for FKBP relative to wild-type FKBP (FKBP12(F36V); FKBP12(F36V) vs wild-type FKBP): over 1000 fold
- Affinity for FKBP (FKBP12(F36V); FKBP12(F36V)): sub-nanomolar
- Luminescence signal (RLU) (mu-opioid receptor (MOR) [3]): increase the signal
- Shield-1 dependence of SsrA accessibility [4]: not observed
- Increase in mCherry reporter gene expression vs no shield-1 [5]: 44 fold
- Biotin signal / CapN state after washing away shield-1 (CapN): No decrease in biotin signal; also recorded: CapN remained open
- Decrease in luminescence (mu-opioid receptor (MOR) [1]; shield-1 treated): ~50%
- EGFP localization after shield-1 addition [6]: depletes EGFP from the plasma membrane; also recorded: depleted the EGFP from the plasma membrane and significantly increased its presence in the cytoplasm
- EGFP nuclear-cytosolic distribution after shield-1 addition [7]: depleted from the cytosol and preferentially localized in the nucleus
- Time to EGFP translocation to the plasma membrane [8]: within seconds
- Shield-1 dependence of TEVcs accessibility [9]: not observed
